Measured values published in patent publication US11613531B2, “Inhibitors of RHO associated coiled-coil containing protein kinase” (Kadmon Corporation, LLC, priority 2017, dated 2023).

Test system: Bleomycin induced lung fibrosis in mice
Test: Therapeutic bleomycin induced lung fibrosis model
Assay type: in vivo
Source text: FIG. 10a. ROCK inhibitor is therapeutically active in a mouse model of pulmonary fibrosis. Representative images of lung sections stained with Masson's trichrome to visualized fibrosis in the lungs of mice following therapeutic treatment with ROCK inhibitor in the bleomycin-induced lung injury model.
FIG. 10b. Quantitation of the decrease in the fibrosis index in the histopathological analysis of the images from ROCK inhibitor and vehicle treated mice in the bleomycin-induced lung injury model.
FIG. 10c. ROCK target engagement analysis in the lung tissue from the bleomycin-induced pulmonary fibrosis model.
Therapeutic Efficacy of Compounds in Bleomycin Induced Lung Fibrosis in Mice
Male C57B/L6 mice were housed for acclimation for no less than 7 days. After acclimation period, animals were randomly assigned to treatment groups. On day 0, mice were anesthetized with 5% isoflurane by inhalation for 10-15 mins and then suspended by their front teeth on a wire attached to a fixed animal operating plate. 50 μL of saline or bleomycin solution was administered via intratracheal instillation. […]
The activity of ROCK inhibitors in attenuating pulmonary fibrosis in a therapeutic dosing setting was assessed in a bleomycin-induced model, following intratracheal bleomycin installation to induce lung tissue damage and consequent fibrosis of the lung. […]
The improvement in the overall lung fibrosis was quantitated for each animal in the control and treatment groups. […]
In addition to the determination of the therapeutic activity of ROCK inhibition in the pulmonary fibrosis model, target engagement and the extent of ROCK inhibition in the lung of drug treated animals were also determined. Protein extracts were prepared from the snap frozen lung samples and separated on SDS-PAGE and analyzed by Western blotting. ROCK kinase direct target, phosphorylated myosin-binding subunit of myosin phosphatase (MYPT, pT853) and a ROCK pathway regulated protein CCN1 expression levels were detected. […] Western blot results were quantitated by the Image J densitometry program. […]

[1] = bleomycin treated mouse lungs, western blot

## Clc1cnc(N2C3CCC2CNC3)nc1Nc1ccc2[nH]ncc2c1 [Example 192, N-(2-(3,8-diazabicyclo[3.2.1]octan-8-yl)-5-chloropyrimidin-4-yl)-1H-indazol-5-amine]
[1]
  CCN1 total protein levels in lung: reduction
  phosphorylated MYPT (pT853) levels in lung: reduction
mice, therapeutic dosing from day 7, Masson's trichrome-stained sections
  collagen amounts in the lungs: significantly lower
